# Assay results published in PubChem BioAssay AID651760 (The Scripps Research Institute Molecular Screening Center, 2012).
# The source made the active and inactive calls. How the calls were made is not given here.
# Target: Hepatocyte nuclear factor 4-alpha (Homo sapiens) (UniProt P41235)
# Experiment: HNF4 dimerization inhibitors, potency, dose response, counter-screen for ABHD5-PLIN5 interaction inhibitor project, biochemical, luminescence, late stage (AID 651760)
# Details: luminescence biochemical assay
# Hepatocyte nuclear factor 4-alpha (Homo sapiens), sequence (P41235 whole entry, looked up): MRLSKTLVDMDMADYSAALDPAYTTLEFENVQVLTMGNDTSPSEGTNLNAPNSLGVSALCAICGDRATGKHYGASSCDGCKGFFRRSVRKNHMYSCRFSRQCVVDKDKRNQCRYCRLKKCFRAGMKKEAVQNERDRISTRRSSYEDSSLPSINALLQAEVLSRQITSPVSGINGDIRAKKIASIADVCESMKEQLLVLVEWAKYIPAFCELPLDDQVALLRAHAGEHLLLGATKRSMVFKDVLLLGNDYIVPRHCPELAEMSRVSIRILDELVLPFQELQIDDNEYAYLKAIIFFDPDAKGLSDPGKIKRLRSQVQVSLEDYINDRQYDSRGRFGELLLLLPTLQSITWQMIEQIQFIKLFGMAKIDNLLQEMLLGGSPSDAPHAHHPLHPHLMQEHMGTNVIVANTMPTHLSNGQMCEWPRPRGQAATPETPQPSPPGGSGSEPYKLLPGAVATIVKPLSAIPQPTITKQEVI
row,Structure (SMILES),IC50
1,CCN(CC)CCOc1ccc(/C(=C(/Cl)c2ccccc2)c2ccccc2)cc1,5.09 µM
2,CCN(CC)CCNC(=O)c1ccc(NC(=O)c2cn(-c3ccccc3)nc2-c2cccs2)cc1,> 39.8 µM (inactive)
3,CC(C)c1ccc(N2C=Nc3ccc(C(C)C)cc3C2)cc1,2.8 µM
4,O=C(/C(=C/O)N=Nc1ccc(Cl)cc1)c1ccncc1,inactive
5,C=C[C@]1(C)C[C@@H](OC(=O)CSCCN(CC)CC)[C@]2(C)C(C)CC[C@]3(CCC(=O)[C@H]32)[C@@H](C)[C@@H]1O (stereo not given in full),> 39.8 µM (inactive)
6,CN(C)CCOC1(Cc2ccc(F)cc2)CCC(C(C)(C)C)CC1 (stereo not given),> 39.8 µM (inactive)
7,CCN(CC)CCOCCOC(=O)C1(c2ccccc2)CCCC1,6.03 µM
8,CN(C)CCCN(C(=O)CCc1ccccc1)c1nc2ccc(Br)cc2s1,> 39.8 µM (inactive)
9,COCCN(CCOC)c1nc(N)c2c(N)nc3c(c2c1C#N)CC(=O)N3Cc1ccc(Cl)cc1,> 39.8 µM (inactive)
10,CN(C)CCN(Cc1ccco1)c1ccccn1,> 39.8 µM (inactive)
11,CC(=O)Cc1cc(O)c2ccccc2c1OC(=O)c1ccccc1,8.21 µM
12,CC(=O)Cc1cc(O)c2ccccc2c1OC(=O)c1ccc(Br)cc1,inactive
13,O=C(C[n+]1cccc(CNC(=O)c2ccc(OC(F)F)cc2)c1)Nc1cccc(C(F)(F)F)c1,> 39.8 µM (inactive)
14,CCCCOC(=O)Nc1cc(C(=O)OC)ccc1C(=O)OC,> 39.8 µM (inactive)
15,COc1ccc(C)c2sc(N(CCN(C)C)C(=O)/C=C/c3cccs3)nc12,inactive
16,Cc1ccc2nc3cc([N+](=O)[O-])cc([N+](=O)[O-])c3cc2c1,inactive
17,NC(=NCCCCCCN=C(N)/N=C(\N)Nc1ccc(Cl)cc1)/N=C(\N)Nc1ccc(Cl)cc1,inactive
18,CCOC(=O)c1c(NC(C)=O)sc2c1CCC(C=O)=C2Sc1ccccc1,inactive
19,CN(C)CCCN(C(=O)CCc1ccccc1)c1nc2ccc(Cl)cc2s1,> 39.8 µM (inactive)
20,CCN(CC)CCC(C)OC(c1ccccc1)c1ccccc1 (stereo not given),5.57 µM
21,O=c1[nH]c(C2CCN(S(=O)(=O)c3ccc(S(=O)(=O)NC4CC4)cc3)CC2)nc2c1nnn2Cc1ccc(F)cc1,> 39.8 µM (inactive)

# The remaining lines, values ahead:
row,IC50,Structure (SMILES)
1,> 39.8 µM (inactive),CC(=O)Nc1ccc(S(=O)(=O)N2c3ccc(F)cc3CCC2C)cc1 (stereo not given)
2,> 39.8 µM (inactive),FC(F)(F)c1cccc(NC(=S)N(CCCN2CCCC2)Cc2cccn2Cc2ccc(Cl)cc2)c1
3,> 39.8 µM (inactive),COc1cc(C)c2sc3ccccc3c(=O)c2c1NCCN(C)C
4,> 39.8 µM (inactive),CCCNC(=O)Nc1ccc2c(c1)N(C)C(=O)c1ccccc1S2
5,> 39.8 µM (inactive),CCCCNC(=O)Nc1ccc2c(c1)N(C)C(=O)c1ccccc1S2
6,> 39.8 µM (inactive),Cc1cc(C)c(NC(=O)CN2CCN3CCCC3C2)c(C)c1 (stereo not given)
7,> 39.8 µM (inactive),O=c1[nH]c(C2CCN(S(=O)(=O)c3ccc(F)cc3)CC2)nc2c1nnn2Cc1ccc2c(c1)OCCO2
8,> 39.8 µM (inactive),COc1ccc(NC(=S)N(CCCN2CCCC2)Cc2cccn2Cc2ccc(Cl)cc2)cc1Cl
9,4.18 µM,CCOc1cc(N)c(Cl)cc1C(=O)NCC1CN(Cc2ccc(F)cc2)CCO1 (stereo not given)
10,> 39.8 µM (inactive),COc1cc2c(cc1OC)C(C)N(CCc1ccc(Cl)cc1)CC2 (stereo not given)
11,> 39.8 µM (inactive),COc1cc(OC)cc(C(=O)NC(=S)N(Cc2ccccc2)C(C)C)c1
12,> 39.8 µM (inactive),Cc1nc2c(o1)CCc1ccccc1C2N1CCN(C)CC1 (stereo not given)
13,> 39.8 µM (inactive),COc1ccccc1-c1cc(C(=O)NC2CCN(C)CC2)c2ccc(Cl)c(C)c2n1
14,> 39.8 µM (inactive),CC1CCN(S(=O)(=O)c2ccc(NC(=O)Cc3cccs3)cc2)CC1
15,> 39.8 µM (inactive),CC1CCN(S(=O)(=O)c2ccc(NC(=O)Cc3ccccc3)cc2)CC1
16,inactive,CC1=CC(C)(C)Nc2ccc(OC(=O)C(C)N3C(=O)c4ccccc4C3=O)cc21 (stereo not given)
17,> 39.8 µM (inactive),CCN(CC)CCN(CC(=O)Nc1c(C)cc(C)cc1C)C(=O)c1ccccc1
18,> 39.8 µM (inactive),CN1CCC(=C2c3ccccc3CC(=O)c3sccc32)CC1
19,8.97 µM,CCOC(=O)c1c(NC(=O)/C=C/C(=O)O)sc(C)c1-c1ccc(C(C)(C)C)cc1
